Values quoted from earlier work, collected in patent US20250360058A1, “IN SITU FORMED CATIONIC ACP GEL FOR TREATMENT OF TOOTH […]” (KONINKLIJKE PHILIPS N.V., priority 2022, published 2025).

Conditions: between pH 6.5-8.0

Row | SMILES | positively charged basic side chains
1 | N=C(N)NCCC[C@H](N)C(=O)O [Arginine, arginine] | 100%
2 | NCCCC[C@H](N)C(=O)O [Lysine, lysine] | 100%
